# Results from patent publication US20210087533A1, “CANINE EPITHELIAL ORGANOIDS AND METHODS OF MAKING, RECOVERING, AND USE” (Iowa State University Research Foundation, Inc., priority 2019, published 2021).
# Legend:
# TCC organoids [1] = experiment: Ki-67 IHC staining (proliferation) of TCC organoids; type: cell-based, canine
# TCC organoids [2] = experiment: MTT cell viability (cytotoxicity) assay, TCC organoids; type: cell-based, canine; settings: for effect on TCC cell viability (MTT assay): old, much passaged TCC organoids
# Description: Transitional Cell Carcinoma (TCC) Organoid Isolation and Culture. Canine bladder cancer cells for TCC organoids were isolated from urine (TCC #1) or biopsies (TCC #2) of dogs with transitional cell carcinoma. Briefly, urine was centrifuged and washed or small biopsies were washed with 1×Complete Chelation Solution (CCS) and vortexing up to 6 times, then incubated in 20-30 mM EDTA for 1 hour at 4° C. on a rocker. FBS and CCS was added to stop EDTA chelation, mixed, and the supernatant containing cancer cells was put in a new tube. Samples were centrifuged at 150 g for 5 minutes at 4° C., resuspended in DMEM/F12, centrifuged again, and the pellet was resuspended in 120 ul […]®. […]® droplets were then plated at 30 ul/well […]®/cells on 24-well plates. Complete Media with Growth Factors (CMGF+) containing Rock inhibitor and GSK inhibitor was added for 2-3 days at 37 C, and after 2-3 days, TCC organoids were cultured in CMGF+ media without inhibitors. TCC organoids were passaged every 4-7 days with TrypLE Express to dissociate organoids to single cells.
# MTT Cell Viability Assay (Cytotoxicity Assay). Organoids from healthy intestine or transitional cell carcinoma (TCC) were dissociated and plated at equal density in 30 ul/well […]® in 24-well plates in 500 ul/well CMGF+ growth medium. On Day 1-4 after passage, organoids were incubated with the indicated drug for 48 or 96 hours. Cytotoxicity was determined using 3-(4,5-dimethylthiazol-2-yl) 2,5-diphenyl tetrazolium bromide (MTT) at a final concentration of 0.5 mg/mL for 1.5 hr. After medium removal, 200 ul/well cold DMSO was used to dissolve the formazan dye crystals and absorbance was read at 570 nm using a plate reader (SpectraMax 190, Molecular Devices).
# As DMSO freezes […] but it is preferable to use cold media (4° C.) to dissolve the […]®. Thus, put DMSO briefly in 4° C. fridge or −20° C. freezer and remove before it all freezes, then use cold DMSO, pipette up and down vigorously, shake the plate, put plate in freezer briefly, etc. to try to get the […]® and formazan dye crystals to dissolve.
# TCC organoids [3] = experiment: Morphology of treated TCC organoids; type: cell-based, canine; settings: fenoldopam-treated TCC organoids
# canine UC organoids = experiment: MTT assay for metabolic activity of urine-derived UC organoids; type: cell-based; settings: incubation for 24-48 hours
# Description: Free-catch urine was collected from one dog at time of UC diagnosis. Samples were centrifuged and supernatant was removed. The resulting pellet was washed with phosphate-buffered saline (PBS), then incubated in complete chelating solution (CCS) with EDTA and plated in […]® for establishment of organoid culture within one week. Sub-samples of differentiated UC organoids were taken for 3-(4,5-dimethylthiazol-2-yl)-2,5-diphenyltetrazolium bromide (MTT) assay for metabolic activity assessment after incubation with chemotherapeutic agents. Remaining UC organoids were characterized with H&E, RNA in-situ hybridization (RNA-ISH), and immunohistochemistry (IHC) staining techniques.
# P-gp = molecular target: T1, P-gp (Canis lupus familiaris, UniProt C0KKU9); experiment: Rhodamine 123 (Rh123) transport in canine ileal enteroids; type: cell-based; settings: Rh123 1-50 μM, 30 min incubation, without verapamil
# T1 construct: Therefore, P-gp of the enteroids have maintained their transportation ability; endogenous in cells; host or cells: canine ileal enteroids (3D organoids from adult intestinal stem cells of dogs)
# T1 sequence (C0KKU9 1-1281): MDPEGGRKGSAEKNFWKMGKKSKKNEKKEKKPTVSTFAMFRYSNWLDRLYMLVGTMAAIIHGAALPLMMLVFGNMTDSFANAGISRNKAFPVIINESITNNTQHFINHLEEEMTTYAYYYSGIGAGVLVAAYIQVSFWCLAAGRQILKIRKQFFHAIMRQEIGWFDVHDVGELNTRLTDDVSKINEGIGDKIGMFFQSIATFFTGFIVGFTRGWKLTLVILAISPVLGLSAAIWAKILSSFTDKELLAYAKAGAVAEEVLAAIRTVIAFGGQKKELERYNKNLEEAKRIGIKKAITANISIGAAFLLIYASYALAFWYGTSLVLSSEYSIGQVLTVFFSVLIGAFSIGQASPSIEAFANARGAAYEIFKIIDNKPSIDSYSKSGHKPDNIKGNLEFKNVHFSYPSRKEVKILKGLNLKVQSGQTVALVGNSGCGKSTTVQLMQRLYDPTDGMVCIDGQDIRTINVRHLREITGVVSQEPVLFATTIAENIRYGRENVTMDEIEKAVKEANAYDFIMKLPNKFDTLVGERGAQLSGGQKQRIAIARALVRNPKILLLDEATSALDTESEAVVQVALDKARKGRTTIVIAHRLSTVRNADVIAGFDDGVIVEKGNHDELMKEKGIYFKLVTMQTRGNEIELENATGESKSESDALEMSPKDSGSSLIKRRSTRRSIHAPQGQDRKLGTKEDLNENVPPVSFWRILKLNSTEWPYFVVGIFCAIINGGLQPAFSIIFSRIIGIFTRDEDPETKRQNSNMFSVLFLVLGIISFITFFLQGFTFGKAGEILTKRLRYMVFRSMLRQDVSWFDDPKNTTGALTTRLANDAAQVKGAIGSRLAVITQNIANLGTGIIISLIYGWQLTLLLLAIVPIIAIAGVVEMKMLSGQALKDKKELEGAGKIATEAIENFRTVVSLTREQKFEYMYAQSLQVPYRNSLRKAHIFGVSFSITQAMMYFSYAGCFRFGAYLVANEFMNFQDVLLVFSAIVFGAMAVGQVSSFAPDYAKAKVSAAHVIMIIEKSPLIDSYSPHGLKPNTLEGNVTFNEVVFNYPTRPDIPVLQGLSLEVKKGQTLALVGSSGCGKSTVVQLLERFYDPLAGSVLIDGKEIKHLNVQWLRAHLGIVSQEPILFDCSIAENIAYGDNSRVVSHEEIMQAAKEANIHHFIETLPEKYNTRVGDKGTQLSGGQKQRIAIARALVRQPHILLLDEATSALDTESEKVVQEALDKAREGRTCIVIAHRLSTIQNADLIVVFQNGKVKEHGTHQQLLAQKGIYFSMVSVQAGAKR
# Description: Canine ileal enteroids were passaged into 15 μL per well of […] ® in chambered cover glass system (Lab-Tek, Chambered Coverglass 8 well) and cultured with 300 μL per well of CMGF+ media for 2 days. […] Rh123 transport experiments were divided into: (1) Control [CTR] […] Enteroids were treated for 30 min and then washed with room-temperature PBS.
# Confocal microscopy (SP5 X MP LAS X; Leica) at the Iowa State University Roy J. Carver High Resolution Microscopy Facility was used to acquire images to detect green fluorescence within the luminal aspect of the enteroids. Fluorescence intensity was controlled by the luminal area to control for the size variation of the enteroids and quantified using the ImageJ software.
# Student's t-tests were used to compare study groups (CTR vs. TRT) for the various doses of Rh123. The Benjamini-Hochberg Procedure was performed to control the risk of false positive for multiple comparisons. All statistical analyses were perform using GraphPad Prism 8.2.1 (San Diego, Calif.) and R 3.5.1. P<0.05 were considered as statistically significant.
molecule,measurement,setting,value
NCCc1ccc(O)c(O)c1 [Dopamine],increase of Ki-67 IHC staining,"TCC organoids [1]; 0.1, 1, 10 μM",about 2 fold
COc1cccc2c1C(=O)c1c(O)c3c(c(O)c1C2=O)C[C@@](O)(C(=O)CO)C[C@@H]3O[C@H]1C[C@H](N)[C@H](O)[C@H](C)O1 [Doxorubicin],TCC organoid cell viability (MTT),TCC organoids [2]; 10 μM doxorubicin,50 % of control
same,"effect on TCC organoid cell viability (MTT), other runs",TCC organoids [2]; sometimes observed,small 20% effect or no effect
same,Ki-67 IHC (proliferation),"TCC organoids [1]; 0.1 μM Dox, once",10-20 % of control
C[C@H](NC(=O)c1c(C(F)F)nn(C)c1Oc1cccc(C(F)(F)F)c1)c1ccc(C(=O)O)cc1 [E-7046],effect on TCC cell viability (MTT assay),"TCC organoids [2]; other plate, dose not given",slight stimulatory effect
NS(=O)(=O)NCCNc1nonc1C(=NO)Nc1ccc(F)c(Br)c1 [Epacadostat],TCC cell viability (MTT assay),"TCC organoids [2]; 1 μM Epacadostat, 48 hours",about 80 % of control
same,decrease of TCC cell viability (MTT assay),"TCC organoids [2]; other doses of Epacadostat, 48 hours",not at the other doses
COc1cc(OC)cc(N(CCNC(C)C)c2ccc3ncc(-c4cnn(C)c4)nc3c2)c1 [Erdafitinib],effect on TCC cell viability (MTT assay),TCC organoids [2]; 1-10 μM,no effect
Oc1ccc(C2CNCCc3c2cc(O)c(O)c3Cl)cc1 (centres unmarked) [Fenoldopam],decrease of TCC organoid Ki-67 (proliferation),TCC organoids [1]; 1 nM Fenoldopam,about 50%
same,effect on TCC organoid Ki-67 (proliferation),TCC organoids [1]; 10 μM Fenoldopam,did not have much effect
same,lumens/holes in the TCC organoids,TCC organoids [3],getting bigger
CN1C(C(=O)Nc2ccccn2)=C(O)c2ccccc2S1(=O)=O [Piroxicam],cell viability (MTT),"TCC organoids [2]; 1-10 μM, 48 hours or 4 days, organoid type not restated",≥ 80 % of control
same,decrease of Ki-67 staining,TCC organoids [1]; 0.1 μM Piroxicam,50%
same,increase of Ki-67 IHC staining,TCC organoids [1]; 1-10 μM Piroxicam,2-3 fold
CC[C@]1(O)C[C@@H]2CN(CCc3c([nH]c4ccccc34)[C@@](C(=O)OC)(c3cc4c(cc3OC)N(C)[C@H]3[C@@](O)(C(=O)OC)[C@H](OC(C)=O)[C@]5(CC)C=CCN6CC[C@]43[C@@H]65)C2)C1 [Vinblastine],effect on TCC cell viability (MTT assay),"TCC organoids [2]; other plate, dose not given",slight stimulatory effect
N.N.[Cl][Pt][Cl] [cisplatin],metabolic activity of UC organoids (MTT),canine UC organoids,reduced metabolic activity
Rhodamine 123 [Rh123],Rh123 luminal transportation,P-gp,significant dose response
